The compounds below were run on Candida albicans (assay: in vivo oral protection of mice inoculated with a lethal infection of Candida albicans). Settings: oral administration to mice with lethal Candida albicans infection; survival of treated group after death of untreated group, 48 hours observation.
Experimental: The in vivo evaluation of the compounds can be carried out at a series of dose levels by intraperitoneal or intravenous injection or by oral administration, to mice which are inoculated with a strain of Candida albicans. Activity is based on the survival of a treated group of mice after the death of an untreated group of mice following 48 hours observation. The dose level at which the compound provides 50X protection against the lethal effect of the infection is noted.
The compounds of the Examples were tested in vivo by oral administration to mice inoculated with a lethal infection of Candida albicans according to the procedures described herein. The dose levels providing 50% protection (PD50) were as follows: […]

Row | SMILES | PD50 (dose level providing 50% protection) [mg/kg/p.o.]
1 | Cn1ncnc1CC(O)(Cn1cncn1)c1ccc(Cl)cc1Cl (stereo not drawn) [Example 3 (2), 2-(2,4-Dichlorophenyl)-1-(2-methyl-1,2,4-triazol-3-yl)-3-(1H-1-2,4-triazol-1-yl)propan-2-ol] | 20
2 | Cn1cnnc1CC(O)(Cn1cncn1)c1ccc(Cl)cc1Cl (stereo not drawn) [Example 3 (3), 2-(2,4-Dichlorophenyl)-1-(4-methyl-1,2,4-triazol-3-yl)-3-(1H-1,2,4-triazol-l-yl)propan-2-ol] | 3.5

Same assay, conditions: oral administration to mice with lethal Candida albicans infection; survival of treated group after death of untreated group, 48 hours observation; read-out: PD50 (dose level providing 50% protection)

Row | SMILES | ED50 [mg/kg]
3 | OC(Cc1ncn[nH]1)(Cn1cncn1)c1ccc(Cl)cc1Cl (stereo not drawn) [Example 2, 2-(2,4-Dichlorophenyl)-1-(1,2,4-triazol-3-yl)-3-(1H-1,2,4-triazol-1-yl)propan-2-ol, dioxalate] | 2.2
4 | Cn1ccnc1CC(O)(Cn1cncn1)c1ccc(Cl)cc1Cl (stereo not drawn) [Example 5, 2-(2,4-Dichlorophenyl)-1-(1-methylimidazol-2-yl)-3-(1H-1,2,4-triazol-1-yl)propan-2-ol dimesylate] | 1
5 | Cn1nnnc1CC(O)(Cn1cncn1)c1ccc(Cl)cc1Cl (stereo not drawn) [Example 1, 2-(2,4-Dichlorophenyl)-1-(1-methyltetrazol-5-yl)-3-(lH-1,2,4-triazol-l-yl)propan-2-ol] | 0.1
6 | OC(Cc1ncc[nH]1)(Cn1cncn1)c1ccc(Cl)cc1Cl (stereo not drawn) [Example 4, 2-(2,4-Dichlorophenyl)-1-(imidazol-2-yl)-3-(1H-1,2,4-triazol-1-yl)propan-2-ol] | 1.2
